From patent US12012597B2, “Cancer treatment using siRNA to modulate expression of PRDM2/RIZ protein” (ARIZ Precision Medicine, Inc., priority 2020, dated 2024)
“Also recorded” adds a separate entry of the source. d = 2'-deoxy (DNA); r = 2'-OH (RNA)

Tests used:
[1] = test system: HCT116 colon cancer cells; assay: Cell viability after siRNA transfection with or without 5-fluorouracil; settings: 5-fluorouracil 25 μM added one day after transfection, after four days, relative to untreated cells, FIG. 4
Description: Where indicated, 5-fluorouracil (25 μM) was added one day after transfection. Media (with 5-flurouracil where indicated) was changed after two days, and after four days, percent cell viability was determined, relative to untreated cells.

[2] = test system: RIZ2 mRNA; assay: qPCR of RIZ2 mRNA in siRNA-transfected A549 cells; format: cell-based, human
Description: (§1) RIZ1 and RIZ2 mRNA levels were determined in control and siRNA-transfected cells using qPCR. RNA was extracted from cells 48 hours after transfection, and mRNA expression levels were detected using PRDM isoform A and PRDM isoform C specific PCR primers. RIZ mRNA expression levels were determined relative to GAPDH mRNA expression levels. Scrambled siRNA was used a negative control, and Tox (Transfection control siRNA, commercially available) was used a positive control.

[3] = test system: KMS-11 multiple myeloma cell line; assay: Viability of multiple myeloma cells after siRNA; format: cell-based; settings: comparable to the Tox positive control, FIG. 8
Source text: In this example, the effect of siRNA ARIZ-011 was further tested on a multiple myeloma cell line, KMS-11. KMS-11 cell line was obtained from commercially available sources, and was originally derived from […] multiple myeloma patient's cells. These cells have characteristics of plasma cells.

[4] = test system: RIZ2 mRNA; assay: RIZ2 mRNA level in HCT116 cells after siRNA; format: cell-based, human; settings: FIG. 5
Description: as §1

[5] = test system: RIZ1 mRNA; assay: RIZ1 mRNA level in HCT116 cells after siRNA; format: cell-based, human; settings: FIG. 5
Description: as §1

[6] = test system: RIZ1 mRNA; assay: qPCR of RIZ1 mRNA in siRNA-transfected A549 cells; format: cell-based, human; settings: qPCR relative to GAPDH mRNA
Description: as §1

[7] = test system: A549 lung cancer cells; assay: MTS cell viability assay after siRNA transfection; format: cell-based, human; settings: 100 nM siRNA; for Viability of the A549 lung cancer cells (change): DharmaFECT 1, after four days, FIG. 2; for relative cell viability: single exposure, after four days, relative to untreated cells

O=c1[nH]cc(F)c(=O)[nH]1 [5-fluorouracil]
cytotoxicity at 25 µM ([1]; Homo sapiens, HCT-116, read-out: decreased cell viability (killing) of HCT116 colon cancer cells, siRNA 100 nM): 72 to 74%
decreased cell viability (killing) of HCT116 colon cancer cells ([1]; siRNA 100 nM): 72%

ARIZ-011: Unmodified double-stranded siRNA, sense SEQ ID NO: 1, antisense SEQ ID NO: 10, complementary to both RIZ1 and RIZ2 mRNA (sense GGGAGAGAUGAGAGAGAAATT; antisense UUUCUCUCUCAUCUCUCCCTT; RNA, all phosphodiester, T or U not given here)
decrease in RIZ2 mRNA ([2]; 48 hours after transfection, relative to GAPDH mRNA, FIG. 3): ~75%
RIZ2 mRNA level (change) ([2]; qPCR relative to GAPDH mRNA): knockdown
KMS-11 cell death in culture [3]: about 80%
expression level of RIZ2 (change) [4]: selectively decreased
RIZ1 mRNA (change) [5]: concurrent increase
RIZ1 mRNA level (change) [6]: simultaneous increase in RIZ1 mRNA; also recorded: upregulated expression
Viability of the A549 lung cancer cells (change) [7]: decreased
relative cell viability [7]: 30%

ARIZ-012: Double-stranded siRNA, sense SEQ ID NO: 2, antisense SEQ ID NO: 12, complementary to sequences shared by RIZ1 and RIZ2 mRNA (sense GUGUAGUGCUGUAAAGAAATT; antisense UUUCUUUACAGCACUACACTT; sugars from the 5' end r19 d2, backbone and T or U not given here)
Viability of the A549 lung cancer cells (change) [7]: decreased

ARIZ-015: Double-stranded siRNA, sense SEQ ID NO: 5, antisense SEQ ID NO: 15, complementary to last 19 bases at 3′ end of RIZ2 mRNA (sense GGACUUCAGGAACUUCCUGTT; antisense CAGGAAGUUCCUGAAGUCCTT; sugars from the 5' end r19 d2, backbone and T or U not given here)
Viability of the A549 lung cancer cells (change) [7]: decreased
relative cell viability [7]: 70%
